Patent US11655232B2 (Celgene Corporation, priority 2003, dated 2023)
Converted amounts (≈) assume the structure as drawn. “And” between values parts separate entries of the source, which are not always exact repeats. Identical values can stand only once. “Also recorded” adds a separate entry of the source. Marks after values point to notes of the source that are not given here.

Tests used:
[1] = Interconversion slurry experiments
Procedure: Interconversion experiments were carried out by making slurries containing two forms in a saturated solvent. The slurries were agitated for approximately 7-20 days at ambient temperature. The insoluble solids were recovered by filtration and analyzed using XRPD.

Desolvation by heating = format: physicochemical; conditions: about 150° C. for about five minutes
[2] = Moisture sorption/desorption; format: physicochemical
Procedure: Moisture sorption/desorption data were collected on a VTI SGA-100 moisture balance system. For sorption isotherms, a sorption range of 5 to 95% relative humidity (RH) and a desorption range of 95 to 5% RH in 10% RH increments was used for analysis. The sample was not dried prior to analysis. Equilibrium criteria used for analysis were less than 0.0100 weight percent change in 5 minutes with a maximum equilibration time of 3 hours if the weight criterion was not met. Data were not corrected for the initial moisture content of the samples.

[3] = Intrinsic dissolution (Woods apparatus); format: physicochemical; conditions: for dissolution rates (estimated) / Final Form of undissolved solids after intrinsic dissolution (XRPD) / Intrinsic Dissolution #2 (rate): HCl buffer pH 1.8, 1% sodium lauryl sulfate; for Final Form of undissolved solids after intrinsic dissolution (XRPD) / Intrinsic Dissolution #1 (rate) / Intrinsic Dissolution #2 (rate): 37° C.; for Average Intrinsic Dissolution Rate: average of experiments #1 and #2; for Intrinsic Dissolution #1 (rate): experiment #1, 900 mL HCl buffer pH 1.8, 1% sodium lauryl sulfate; for Intrinsic Dissolution #1 (rate) / Intrinsic Dissolution #2 (rate): 50 rpm; for Intrinsic Dissolution #2 (rate): experiment #2
Procedure: Dissolution experiments were carried out in a VanKel VK6010-8 dissolution apparatus equipped with a VK650A heater/circulator. An intrinsic dissolution apparatus (Woods apparatus) was used. Samples were compressed at 1.5 metric tons (1000 psi) for 1 min using the Woods apparatus in a hydraulic press, giving a sample surface of 0.50 cm^2. […] The medium was degassed by vacuum filtration through a 0.22-μm nylon filter disk and maintained at 37° C. The apparatus was rotated at 50 rpm for each experiment. Aliquots were filtered immediately using 0.2-μm nylon syringe filters. In some cases, the undissolved solids were recovered and analyzed by X-ray powder diffraction (XRPD).
(§1) Diffracted radiation was detected by a NaI scintillation detector.

[4] = Equilibrium solubility in dissolution medium; conditions: for Final Form of solids remaining from solubility experiment (XRPD) / Concentration: HCl buffer pH 1.8, 1% sodium lauryl sulfate; for Final Form of solids remaining from solubility experiment (XRPD): final time point
Procedure: A solid sample of 400-450 mg was stirred in 50 mL of dissolution medium (HCl buffer, pH 1.8, with 1% sodium lauryl sulfate) using a mechanical stir rod. Aliquots were filtered using 0.2-μm nylon syringe filters and immediately diluted 1 mL→50 mL, then 5 mL→25 mL with dissolution medium in Class A glassware, a final dilution factor of 250.
Dissolution and solubility samples solutions were analyzed by a Beckman DU 640 single-beam spectrophotometer. A 1.000-cm quartz cuvette and an analysis wavelength of 228.40 nm were utilized. The detector was zeroed with a cuvette filled with dissolution medium.
XRPD analyses were carried out on a Shimadzu XRD-6000 X-ray powder diffractometer using Cu Kα radiation. The instrument is equipped with a fine focus X-ray tube. The tube power and amperage were set at 40 kV and 40 mA, respectively. The divergence and scattering slits were set at 1° and the receiving slit was set at 0.15 mm. Diffracted radiation was detected by a NaI scintillation detector. A theta-two theta continuous scan at 3°/min (0.4 sec/0.02° step) from 2.5 to 40°2θ was used. A silicon standard was analyzed each day to check the instrument alignment. Samples were packed in an aluminum holder with silicon insert.

[5] = Temperature/relative humidity stress storage; format: physicochemical; conditions: about 85 days; room temperature/0% RH and 40° C./93% RH
[6] = Compression and grinding, form check by XRPD; format: physicochemical; conditions: compressed into disks in Woods apparatus, 2 metric tons, ground gently
Procedure: as §1
Approximately 200 mg each of Forms A and B were compressed into disks in the Woods apparatus using 2 metric tons of pressure. The samples were subsequently scraped out, ground gently, and analyzed by XRPD. […] (See Table 7).

[7] = from 5 to 95% relative humidity

SMILES: Nc1cccc2c1CN(C1CCC(=O)NC1=O)C2=O (stereo not shown) [Form H, 3-(4-amino-1-oxo-1,3 dihydro-isoindol-2-yl)-piperidine-2,6-dione]
- interconversion ([1]; slurried in water with either Forms A or B, about 14 days): can convert to Form E

SMILES: Nc1cccc2c1CN(C1CCC(=O)NC1=O)C2=O (stereo not shown) [Form D, 3-(4-amino-1-oxo-1,3 dihydro-isoindol-2-yl)-piperidine-2,6-dione]
- interconversion / stability in solvent system ([1]; THF solvent system): capable of converting to Form A
- form after heating (desolvation) (Desolvation by heating): will typically convert to Form A
- hygroscopicity (summary) [2]: either weakly or not hygroscopic
- weight gain on moisture sorption [2, 7]: does not exhibit a significant weight gain

SMILES: Nc1cccc2c1CN(C1CCC(=O)NC1=O)C2=O (single isomer, unassigned) [Form B, 3-(4-amino-1-oxo-1,3 dihydro-isoindol-2-yl)-piperidine-2,6-dione]
- Cumulative Amount Dissolved per Unit Area ([3]; Experiment #1, 5 min): 10.80^b mg/cm2
- Cumulative Amount Dissolved per Unit Area ([3]; Experiment #1, 10 min): 6.85 mg/cm2
- Cumulative Amount Dissolved per Unit Area ([3]; Experiment #1, 20 min): 10.25 mg/cm2
- Cumulative Amount Dissolved per Unit Area ([3]; Experiment #1, 30 min): 14.35 mg/cm2
- Cumulative Amount Dissolved per Unit Area ([3]; Experiment #1, 45 min): 20.57 mg/cm2
- Cumulative Amount Dissolved per Unit Area ([3]; Experiment #1, 60 min): 25.70 mg/cm2
- Cumulative Amount Dissolved per Unit Area ([3]; Experiment #1, 90 min): 34.34 mg/cm2
- Cumulative Amount Dissolved per Unit Area ([3]; Experiment #2, 5 min): 5.04 mg/cm2
- Cumulative Amount Dissolved per Unit Area ([3]; Experiment #2, 10 min): 6.12 mg/cm2
- Cumulative Amount Dissolved per Unit Area ([3]; Experiment #2, 20 min): 7.73 mg/cm2
- Cumulative Amount Dissolved per Unit Area ([3]; Experiment #2, 30 min): 12.72 mg/cm2
- Cumulative Amount Dissolved per Unit Area ([3]; Experiment #2, 45 min): 17.33 mg/cm2
- Cumulative Amount Dissolved per Unit Area ([3]; Experiment #2, 60 min): 21.93 mg/cm2
- Cumulative Amount Dissolved per Unit Area ([3]; Experiment #2, 90 min): 31.64 mg/cm2
- Cumulative Amount Dissolved per Unit Area ([3]; Experiment #2, 120 min): 41.31 mg/cm2
- Cumulative Amount Dissolved per Unit Area ([3]; Experiment #2, 150 min): 49.54 mg/cm2
- dissolution rates (estimated) [3]: 0.34 mg/cm²/min
- Final Form of undissolved solids after intrinsic dissolution (XRPD) [3]: did not change
- Average Intrinsic Dissolution Rate [3]: 0.34 mg per cm^2 per minute
- Intrinsic Dissolution #1 (rate) [3]: 0.35 mg per cm^2 per minute
- Intrinsic Dissolution #2 (rate) [3]: 0.32 mg per cm^2 per minute
- Final Form of solids remaining from solubility experiment (XRPD) [4]: Form B
- Solubility ([4]; HCl buffer, pH 1.8, with 1% sodium lauryl sulfate, 25° C., estimated): 5.8 mg/mL (≈ 22.4 mM)
- Concentration stabilized ([4]; final three time points (180, 420, 650 min)): 5600 to 5700 µg/mL
- stability in water (suggested by remaining solids) ([4]; slurry in dissolution medium up to 650 min): good stability in water
- Concentration ([4]; time point 7 min, 25° C.): 1630 µg/mL
- Concentration ([4]; time point 15 min, 25° C.): 2140 µg/mL
- Concentration ([4]; time point 30 min, 25° C.): 2330 µg/mL
- Concentration ([4]; time point 60 min, 25° C.): 2940 µg/mL
- Concentration ([4]; time point 90 min, 25° C.): 3300 µg/mL and 3340 µg/mL
- Concentration ([4]; time point 180 min, 25° C.): 5670 µg/mL
- Concentration ([4]; time point 420 min, 25° C.): 5760 µg/mL
- Concentration ([4]; time point 650 min, 25° C.): 5610 µg/mL
- form after stress storage [5]: does not convert to a different form
- interconversion / stability in solvent system ([1]; THF solvent system): typically converts to Form A
- interconversion / stability in solvent system ([1]; acetone solvent system): typically converts to Form C
- interconversion / stability in solvent system ([1]; anhydrous solvent systems): converts to other forms
- interconversion ([1]; in the presence of water): can convert to Form E
- weight gain on moisture sorption [2, 7]: does not exhibit a significant weight gain
- Final Form after pressing (compression and grinding, XRPD) [6]: does not cause a form change

SMILES: Nc1cccc2c1CN(C1CCC(=O)NC1=O)C2=O (single isomer, unassigned) [Form A, 3-(4-amino-1-oxo-1,3 dihydro-isoindol-2-yl)-piperidine-2,6-dione]
- Cumulative Amount Dissolved per Unit Area ([3]; Experiment #1, 5 min): 5.76 mg/cm2
- Cumulative Amount Dissolved per Unit Area ([3]; Experiment #1, 10 min): 7.73 mg/cm2
- Cumulative Amount Dissolved per Unit Area ([3]; Experiment #1, 20 min): 11.31 mg/cm2
- Cumulative Amount Dissolved per Unit Area ([3]; Experiment #1, 30 min): 15.59 mg/cm2
- Cumulative Amount Dissolved per Unit Area ([3]; Experiment #1, 45 min): 21.98 mg/cm2
- Cumulative Amount Dissolved per Unit Area ([3]; Experiment #1, 60 min): 27.11 mg/cm2
- Cumulative Amount Dissolved per Unit Area ([3]; Experiment #1, 90 min): 34.17 mg/cm2
- Cumulative Amount Dissolved per Unit Area ([3]; Experiment #2, 5 min): 4.50 mg/cm2
- Cumulative Amount Dissolved per Unit Area ([3]; Experiment #2, 10 min): 5.22 mg/cm2
- Cumulative Amount Dissolved per Unit Area ([3]; Experiment #2, 20 min): 7.54 mg/cm2
- Cumulative Amount Dissolved per Unit Area ([3]; Experiment #2, 30 min): 11.46 mg/cm2
- Cumulative Amount Dissolved per Unit Area ([3]; Experiment #2, 45 min): 15.01 mg/cm2
- Cumulative Amount Dissolved per Unit Area ([3]; Experiment #2, 60 min): 18.38 mg/cm2
- Cumulative Amount Dissolved per Unit Area ([3]; Experiment #2, 90 min): 24.38 mg/cm2
- Cumulative Amount Dissolved per Unit Area ([3]; Experiment #2, 120 min): 30.35 mg/cm2
- Cumulative Amount Dissolved per Unit Area ([3]; Experiment #2, 150 min): 35.26 mg/cm2
- dissolution rates (estimated) [3]: 0.35 mg/cm²/min
- Final Form of undissolved solids after intrinsic dissolution (XRPD) [3]: did not change; also recorded: does not indicate a form change
- Average Intrinsic Dissolution Rate [3]: 0.29^a mg per cm^2 per minute
- Intrinsic Dissolution #1 (rate) [3]: 0.35 mg per cm^2 per minute
- Intrinsic Dissolution #2 (rate) [3]: 0.22 mg per cm^2 per minute and 0.22^a mg per cm^2 per minute
- true intrinsic dissolution rate (believed) ([3]; judged from experiment #1, since #2 disk surface may have converted to Form E): ~0.35 mg per cm^2 per minute
- Final Form of solids remaining from solubility experiment (XRPD) [4]: unstable in the medium, converting to Form E
- Concentration ([4]; time point 7 min, 25° C.): 6000 µg/mL
- Concentration ([4]; time point 15 min, 25° C.): 6110 µg/mL
- Concentration ([4]; time point 30 min, 25° C.): 6200 µg/mL and 6160 µg/mL
- Concentration ([4]; time point 60 min, 25° C.): 6100 µg/mL
- Concentration ([4]; time point 90 min, 25° C.): 5460 µg/mL
- Concentration ([4]; time point 150 min, 25° C.): 4700 µg/mL and 4730 µg/mL
- form after stress storage [5]: typically does not convert to a different form
- thermodynamic stability among anhydrous polymorphs (summary) [1]: most thermodynamically stable anhydrous polymorph
- interconversion / stability in solvent system ([1]; acetone solvent system): can convert to Form C
- interconversion / stability in solvent system ([1]; anhydrous solvent systems): tends to be stable
- interconversion / stability in solvent system ([1]; aqueous solvent systems): can convert to Form B
- interconversion ([1]; water systems, in the presence of Form E): tends to convert to Form E
- hygroscopicity (summary) [2]: weakly or not hygroscopic
- weight lost from start to finish ([2]; at 5% relative humidity after drying from 95% back down to 5%): about 0.003 % by weight
- weight gain on moisture sorption [2, 7]: does not exhibit a significant weight gain
- Final Form after pressing (compression and grinding, XRPD) [6]: does not cause a form change

SMILES: Nc1cccc2c1CN(C1CCC(=O)NC1=O)C2=O (stereo not shown) [Form C, 3-(4-amino-1-oxo-1,3 dihydro-isoindol-2-yl)-piperidine-2,6-dione]
- interconversion / stability in solvent system ([1]; THF solvent system): typically converts to Form A
- interconversion / stability in solvent system ([1]; acetone solvent system): most stable form
- interconversion / stability in solvent system ([1]; aqueous solvent systems): typically converts to Form E
- form after heating (desolvation) (Desolvation by heating): will typically convert to Form A
- hygroscopicity (summary) [2]: not hygroscopic below about 85% RH
- weight loss ([2]; at 95% relative humidity): about 6.03%
- weight gain on moisture sorption ([2]; from 5 to 85% relative humidity): does not exhibit a significant weight gain
